Patent US20090253658A1, “Fat Accumulation Inhibitor” (priority 2006, published 2009)

How the values were obtained:
[1] = system: adiponectin concentration in blood; experiment: Acceleration of increase and/or inhibition of decrease of adiponectin concentration in blood (high fat feed animal test, ELISA); assay type: in vivo
Description: Using the sphingomyelin obtained in Example 7, an action of acceleration of increase and/or inhibition of decrease of an adiponectin concentration in blood was verified. An animal test was carried out using 8 animals per group by a group in which a high fat feed blended with sphingomyelin was fed (sphingomyelin diet group) and a group in which a high fat feed not blended with sphingomyelin was fed (high fat diet group). The high fat diet was prepared using a milk casein as a protein source and a butter oil as a lipid source. In the animal test, a feed was provided until the 4th week after rearing, and thereafter the group was divided into 5 groups, and the high fat feed or sphingomyelin-blended high fat feed was provided until the 8th week. Blood collection was carried out on the 4th week and on the 8th week, and an adiponectin concentration in blood was measured using a Mouse/Rat Adiponectin ELISA Kit (manufactured by Otsuka Pharmaceutical Co., Ltd.).

visceral fat = experiment: Inhibition of visceral fat accumulation (high fat feed animal test, dissection on 8th week); assay type: in vivo
Description: Using the sphingomyelin obtained in Example 7, an action of inhibition of visceral fat accumulation was verified. An animal test was carried out using 8 animals per group by a group in which a high fat feed blended with sphingomyelin was fed (sphingomyelin diet group) and a group in which a high fat feed not blended with sphingomyelin was fed (high fat diet group). In the animal test, the high fat feed was provided until the 4th week after rearing, and thereafter the group was divided into 5 groups, and the high fat feed or sphingomyelin-blended high fat feed was provided until the 8th week. By carrying out dissection on the 8th week, the amount of visceral fats (mesenteric, peri-testicular, perirenal, posterior abdominal) was measured.

sphingomyelin [Sphingomyelin (Example 7)]
Adiponectin concentration in blood with the lapse of time (in words) ([1]; 4th to 8th week, decreases in the high fat diet group): increases
Adiponectin concentration in blood ([1]; 4 weeks (before start of sphingomyelin-blended high fat feed)): 10.88 µg/mL
Adiponectin concentration in blood ([1]; 8 weeks (sphingomyelin-blended high fat feed from 4th to 8th week)): 15.65 µg/mL
Amount of visceral fat, Mesenteric (visceral fat; dissection on the 8th week): 2.19 g
Amount of visceral fat, Perirenal (visceral fat; dissection on the 8th week): 0.74 g
Amount of visceral fat, peri-testicular (visceral fat; dissection on the 8th week): 3.22 g
Amount of visceral fat, posterior abdominal (visceral fat; dissection on the 8th week): 2.11 g
Amount of visceral fat (in words) (visceral fat; in comparison with the high fat diet group): low values
